We go through seven molecules from PMC7536148, “Interactions of zearalanone, α-zearalanol, β-zearalanol, zearalenone-14-sulfate, and zearalenone-14-glucoside with serum albumin” (Mycotoxin Research, 2020).

Where “and” joins values, the source holds several entries; their conditions need not be identical. Identical values can stand only once. Counter-ions that a name gives are not always drawn. Like-named read-outs stand apart in the source and are kept apart here. Marks after values point to notes of the source that are not given here.

One data set concerns estrogen receptors. To be noted: cited from earlier work; for xenoestrogenic effects compared with ZEN: ref EFSA 2017, Fleck et al. 2017, Frizzell et al. 2011, Filannino et al. 2011.
The target of data set [1] is T1, warfarin-HSA complex (Homo sapiens, UniProt P02768).
T1 construct: purchased Sigma-Aldrich
Briefly: Effect of mycotoxins on warfarin-HSA interaction (warfarin fluorescence). The format is binding. The settings on record: warfarin 1 μmol/L, HSA 3.5 μmol/L, mycotoxin 0-15 μmol/L, PBS pH 7.4, λex = 317 nm. The protocol: (§1) Fluorescence spectroscopic measurements were carried out employing a Hitachi F-4500 fluorescence spectrophotometer (Hitachi, Tokyo, Japan) to investigate the effect of increasing mycotoxin concentrations on the fluorescence signal of albumins as well as on the emission spectrum of warfarin-HSA complex. Our studies were executed in phosphate-buffered saline (PBS, pH 7.4; 8.00 g/L NaCl, 0.20 g/L KCl, 1.81 g/L Na2HPO4 × 2H2O, 0.24 g/L KH2PO4) at room temperature, in the presence of air.
(§2) For spectral correction of fluorescence emission intensities, absorption spectra of mycotoxins were also recorded applying a Jasco-V730 spectrophotometer (Jasco, Tokyo, Japan). The inner-filter effect of mycotoxins was corrected as described previously (Hu and Liu [2015]; Faisal et al. [2018]):1 Icor=Iobs×e^Aex+Aem/2 where Icor and Iobs indicate the corrected and observed fluorescence emission intensities, respectively. Aex and Aem denote the absorbance of mycotoxins at the excitation and emission wavelengths used, respectively.
To test the effects of ZEN metabolites on warfarin-HSA interaction, our previously reported method was applied (Faisal et al. [2018]; Fliszár-Nyúl et al. [2019]). In this experiment, the fluorescence emission signal of warfarin (1 μmol/L; λex = 317 nm, λem = 379 nm) was examined in the presence of HSA (3.5 μmol/L) without and with mycotoxins (0, 1, 2, 3, 4, 5, 6, 8, 10, and 15 μmol/L) in PBS (pH 7.4). Under these conditions, approximately 70% of warfarin is albumin-bound.

The target of data set [2] is T2, rat serum albumin (RSA) (Rattus norvegicus, UniProt P02770).
T2 construct: purchased Sigma-Aldrich
The data set can be described thus: Fluorescence quenching of rat serum albumin by mycotoxins. In kind it is binding. The settings on record: for logKSV ± SEM (Stern-Volmer quenching constant): RSA 2 μmol/L, PBS pH 7.4, room temperature, λex = 295 nm, λem = 340 nm. The procedure:
as §1, §2
(§3) To investigate the stability of mycotoxin-albumin complexes, mycotoxin-induced quenching effects on the intrinsic fluorescence of albumins were tested. The emission signal of albumins (2 μmol/L; λex = 295 nm; […]) were measured in the presence of increasing concentrations of mycotoxins (0.0, 1.0, 2.0, 3.0, 4.0, 5.0, 6.0, 7.0, 8.0, 9.0, and 10.0 μmol/L). Stern-Volmer quenching constants (KSV; unit: L/mol) were determined employing the Stern-Volmer equation (Ma et al. [2018]; Faisal et al. [2018]):2 I0/I=1+KSV×Q where Q is the concentration of the mycotoxin (unit: mol/L). I0 and I are the fluorescence emission signal of albumin in the absence and presence of mycotoxins, respectively. Z14S and Z14G exert fluorescence; their excitation and emission spectra, under different environmental conditions, have been reported previously (Faisal et al. [2019], [2020]).
(§4) Binding constants (K; unit: L/mol) of mycotoxin-albumin complexes were determined by nonlinear fitting employing Hyperquad2006 software, as described in details in our previous studies (Sueck et al. [2018]; Faisal et al. [2018]).

The target of data set [3] is T3, porcine serum albumin (PSA) (Sus scrofa, UniProt P08835).
T3 construct: purchased Sigma-Aldrich
The data set can be described thus: Fluorescence quenching of porcine serum albumin by mycotoxins. The format is binding. The settings on record: for logKSV ± SEM (Stern-Volmer quenching constant): PSA 2 μmol/L, PBS pH 7.4, room temperature, λex = 295 nm, λem = 340 nm. The procedure:
as §1, §2, §3, §4

In data set [4] the target is T4, bovine serum albumin (BSA) (Bos taurus, UniProt P02769).
T4 construct: purchased Sigma-Aldrich
The data set can be described thus: Fluorescence quenching of bovine serum albumin by mycotoxins. In kind it is binding. The settings on record: for logKSV ± SEM (Stern-Volmer quenching constant): BSA 2 μmol/L, PBS pH 7.4, room temperature, λex = 295 nm, λem = 340 nm. The protocol: as §1, §2, §3, §4

For the next data set, the target named is T5, HSA (Homo sapiens, UniProt P02768).
T5 construct: purchased Daicel Chiralpak HSA, 50 × 3.0 mm, 5 μm
Briefly: High-performance affinity chromatography on HSA-coated column. The settings on record: Chiralpak HSA column, isopropanol / 0.01 mol/L ammonium acetate pH 7.0 (15:85 v/v%), 0.5 mL/min, room temperature. In kind it is binding. The protocol:
HPAC was performed with a HSA-coated column (Faisal et al. [2018]). The HPLC system (Jasco, Tokyo, Japan) used for the analysis included an autosampler (AS-4050), a binary pump (PU-4180), and a diode-array detector (MD-4017). A 5-μL volume of samples (ZAN: 200 μmol/L; ZEN, α-ZAL, β-ZAL, and Z14S: 100 μmol/L; Z14G: 50 μmol/L) was driven through a pre-column filter (Waters, Milford, MA, USA) linked to an immobilized HSA-coated HPAC column (Chiralpak® HSA, 50 × 3.0 mm, 5 μm; Daicel, Tokyo, Japan). The isocratic elution was performed with 0.5-mL/min flow rate at room temperature. The mobile phase contained isopropanol (HPLC grade; VWR, Debrecen, Hungary) and 0.01 mol/L pH 7.0 ammonium acetate buffer (15:85 v/v%). Mycotoxins were detected at 235 nm, and chromatograms were evaluated with ChromNAV software.

In data set [5] the target is T6, human serum albumin (HSA) (Homo sapiens, UniProt P02768).
T6 construct: purchased Sigma-Aldrich
The data set can be described thus: Fluorescence quenching of human serum albumin by mycotoxins. The format is binding. To be noted: for logKSV ± SEM (Stern-Volmer quenching constant): HSA 2 μmol/L, PBS pH 7.4, room temperature, λex = 295 nm, λem = 340 nm; for Kd: logK ± SEM (binding constant of mycotoxin-albumin complex), HSA, quenching data, Hyperquad2006 fitting, 1:1 stoichiometry, PBS pH 7.4. The protocol:
as §1, §2, §3, §4

For data set [6] the following is noted: pigs, ref Binder et al. 2017; cited from earlier work.
Data set [7] deals with T1, warfarin-HSA complex. More on the design: method as in Poór et al. 2017; Faisal et al. 2018. To be noted: allosteric interaction with Sudlow's site I ligand; ref Poór et al. 2017; Faisal et al. 2018; cited from earlier work.
The target in data set [8] is T3, porcine serum albumin (PSA). Also on record: method as in Faisal et al. (2018). The settings on record: ref Faisal et al. (2018); cited from earlier work.
Data set [9] addresses T6, human serum albumin (HSA). More on the design: method as in Faisal et al. (2018). The settings on record: ref Faisal et al. (2018); cited from earlier work.
Details of data set [10]: method as in EFSA 2014. The settings on record: ZEN equivalents for ZEN and its modified forms jointly; ref EFSA 2014; cited from earlier work.
The target in data set [11] is T2, rat serum albumin (RSA). More on the design: method as in Faisal et al. (2018). The settings on record: ref Faisal et al. (2018); cited from earlier work.
Data set [12] addresses T4, bovine serum albumin (BSA). Also on record: method as in Faisal et al. (2018). The settings on record: ref Faisal et al. (2018); cited from earlier work.
Details of data set [13]: method as in Rai et al. 2019. To be noted: ref Rai et al. 2019; cited from earlier work.
[14] abbreviates: from binding constants of Table 2.

T5 sequence (P02768 25-609): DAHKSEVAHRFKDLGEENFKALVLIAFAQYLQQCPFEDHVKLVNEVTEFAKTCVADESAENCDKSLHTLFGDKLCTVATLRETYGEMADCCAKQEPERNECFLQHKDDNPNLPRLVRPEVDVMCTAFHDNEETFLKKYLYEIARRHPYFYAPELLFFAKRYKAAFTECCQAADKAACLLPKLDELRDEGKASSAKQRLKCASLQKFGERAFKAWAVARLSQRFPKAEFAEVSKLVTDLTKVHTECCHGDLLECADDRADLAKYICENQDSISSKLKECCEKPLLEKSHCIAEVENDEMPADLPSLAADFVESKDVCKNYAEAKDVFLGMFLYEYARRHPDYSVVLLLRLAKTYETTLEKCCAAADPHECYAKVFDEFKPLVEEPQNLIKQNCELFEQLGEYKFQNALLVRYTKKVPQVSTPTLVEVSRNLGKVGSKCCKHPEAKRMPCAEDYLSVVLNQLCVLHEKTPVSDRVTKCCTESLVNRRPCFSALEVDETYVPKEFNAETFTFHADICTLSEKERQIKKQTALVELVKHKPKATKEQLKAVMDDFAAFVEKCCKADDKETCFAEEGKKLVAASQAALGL
T1 sequence (P02768 25-609, one chain of several): as the sequence (P02768 25-609) above
T6 sequence (P02768 25-609): as above
T2 sequence (P02770 25-608): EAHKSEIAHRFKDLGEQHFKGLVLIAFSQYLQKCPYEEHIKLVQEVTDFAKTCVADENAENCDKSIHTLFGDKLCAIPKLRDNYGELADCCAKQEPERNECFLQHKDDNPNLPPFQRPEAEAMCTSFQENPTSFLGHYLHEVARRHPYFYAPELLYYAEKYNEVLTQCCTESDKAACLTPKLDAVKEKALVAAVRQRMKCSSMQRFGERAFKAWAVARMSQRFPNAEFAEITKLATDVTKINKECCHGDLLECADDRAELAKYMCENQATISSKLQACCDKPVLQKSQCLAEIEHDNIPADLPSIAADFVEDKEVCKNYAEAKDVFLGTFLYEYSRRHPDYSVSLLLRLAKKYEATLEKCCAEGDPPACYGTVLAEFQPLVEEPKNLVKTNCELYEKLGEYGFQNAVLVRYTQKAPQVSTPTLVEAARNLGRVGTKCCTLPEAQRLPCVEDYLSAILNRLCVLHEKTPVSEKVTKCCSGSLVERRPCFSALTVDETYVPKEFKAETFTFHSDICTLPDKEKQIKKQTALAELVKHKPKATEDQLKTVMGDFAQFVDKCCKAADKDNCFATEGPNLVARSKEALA
T3 sequence (P08835 25-607): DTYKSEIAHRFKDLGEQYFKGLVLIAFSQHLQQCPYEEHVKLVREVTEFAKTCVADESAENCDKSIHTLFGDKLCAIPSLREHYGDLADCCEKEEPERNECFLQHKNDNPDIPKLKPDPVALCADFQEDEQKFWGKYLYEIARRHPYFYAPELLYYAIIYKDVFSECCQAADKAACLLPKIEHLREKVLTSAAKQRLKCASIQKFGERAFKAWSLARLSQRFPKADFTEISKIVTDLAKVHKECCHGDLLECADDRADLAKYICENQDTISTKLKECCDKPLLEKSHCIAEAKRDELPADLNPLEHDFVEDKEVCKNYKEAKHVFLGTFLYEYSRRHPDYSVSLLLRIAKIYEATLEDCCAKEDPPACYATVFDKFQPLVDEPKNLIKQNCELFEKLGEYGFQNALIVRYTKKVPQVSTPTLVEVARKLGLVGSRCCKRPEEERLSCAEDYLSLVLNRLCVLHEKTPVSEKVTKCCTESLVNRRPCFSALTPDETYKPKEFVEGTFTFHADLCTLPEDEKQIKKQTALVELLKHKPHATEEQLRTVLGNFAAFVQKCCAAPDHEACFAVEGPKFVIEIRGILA
T4 sequence (P02769 25-607): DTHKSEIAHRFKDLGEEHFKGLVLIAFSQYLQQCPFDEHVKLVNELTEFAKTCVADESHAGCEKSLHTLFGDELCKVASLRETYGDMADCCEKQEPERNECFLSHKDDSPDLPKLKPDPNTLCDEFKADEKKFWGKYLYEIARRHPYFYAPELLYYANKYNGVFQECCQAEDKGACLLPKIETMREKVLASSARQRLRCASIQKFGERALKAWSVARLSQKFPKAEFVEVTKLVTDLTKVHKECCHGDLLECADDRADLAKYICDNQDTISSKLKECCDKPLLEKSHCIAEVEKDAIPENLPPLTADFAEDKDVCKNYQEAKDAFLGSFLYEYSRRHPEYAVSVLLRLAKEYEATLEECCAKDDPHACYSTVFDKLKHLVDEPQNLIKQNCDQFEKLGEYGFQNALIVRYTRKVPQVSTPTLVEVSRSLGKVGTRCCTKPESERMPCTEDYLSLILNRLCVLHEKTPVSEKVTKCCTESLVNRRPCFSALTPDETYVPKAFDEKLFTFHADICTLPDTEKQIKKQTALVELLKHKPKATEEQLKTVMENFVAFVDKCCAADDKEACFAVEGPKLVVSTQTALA

With `C[C@H]1CCC[C@H](O)CCCCCc2cc(O)cc(O)c2C(=O)O1` [α-ZAL, α-zearalanol], in the data set on estrogen receptors, the “xenoestrogenic effects compared with ZEN” value is “considerably higher xenoestrogenic effects than ZEN”. For the same molecule, the “effect on fluorescence emission signal of warfarin at 379 nm (warfarin-HSA interaction)” value (shortened to “effect on fluorescence emission signal”) on warfarin-HSA complex [1] is given as “considerably increased the emission signal of warfarin”. For the same molecule, the Kd was 4.9 µM at rat serum albumin (RSA) [2], 41.7 µM in data set [3], 45.7 µM in [4] and 28.2 µM in data set [5]. Besides, the “logKSV ± SEM (Stern-Volmer quenching constant)” value (“logKSV ± SEM” below) is reported as 5.21 ± 0.00 L/mol on rat serum albumin (RSA) [2], 4.30 ± 0.05 L/mol in data set [3], 4.20 ± 0.05 L/mol in [4] and 4.50 ± 0.02 L/mol in [5]. Also, the “difference in binding affinity, RSA vs. BSA complex” value on rat serum albumin (RSA) [2] (setting [14]) was found to be 9 fold. For the same molecule, on HSA, the “retention time (tR) from HSA-HPAC affinity column” value (from here on “retention time (tR)”) was 5.3 min and 5.313 min.
`C[C@H]1CCCC(=O)CCC/C=C/c2cc(OS(=O)(=O)O)cc(O)c2C(=O)O1` [Z14S, Zearalenone-14-sulfate ammonium salt]: in data set [6], the “intestinal hydrolysis to ZEN after oral administration” value was “complete intestinal hydrolysis to ZEN”. Moreover, the “lower estrogenicity vs. ZEN” value in the data set with estrogen receptors (in vitro, ref Drzymala et al. 2015) was 100 fold. The “effect on fluorescence emission signal” value at warfarin-HSA complex [1] is reported as “did not affect the fluorescence at 379 nm”. Also, the Kd on rat serum albumin (RSA) [2] was 1.17 µM; in data set [3], 7.59 µM; in [4], 3.72 µM; in data set [5], 20 µM and 19.5 µM. The “logKSV ± SEM” value at rat serum albumin (RSA) [2] was 5.70 ± 0.02 L/mol; in [3], 5.04 ± 0.02 L/mol; in [4] it was 5.32 ± 0.02 L/mol; in data set [5] it was 4.64 ± 0.03 L/mol. Further, the “difference in binding affinity, RSA and HSA complex” value at rat serum albumin (RSA) [2] (setting [14]) came to 16 fold. In addition, the “retention time (tR)” value at HSA is 23.3 min and 23.293 min.
On to `C[C@H]1CCC[C@@H](O)CCC/C=C/c2cc(O)cc(O)c2C(=O)O1` [β-ZEL, β-zearalenol], for which, on warfarin-HSA complex [7], the “effect on binding affinity of warfarin towards HSA” value (from here on “effect on binding affinity”) is “decrease”.
Consider `C[C@H]1CCCC(=O)CCCCCc2cc(O)cc(O)c2C(=O)O1` [ZAN, zearalanone], for which the “effect on fluorescence emission signal” value on warfarin-HSA complex [1] is on record as “considerably increased the emission signal of warfarin”. Moreover, the Kd on rat serum albumin (RSA) [2] is 7.59 µM; in data set [3] it was 107 µM; in data set [4] (BSA, quenching data, Hyperquad2006 fitting, 1:1 stoichiometry, PBS pH 7.4, read-out: logK ± SEM (binding constant of mycotoxin-albumin complex) (converted)), 30.9 µM; in data set [5], 26.3 µM. Further, the “logKSV ± SEM” value came out at 5.00 ± 0.03 L/mol on rat serum albumin (RSA) [2], 3.97 ± 0.06 L/mol in data set [3], 4.41 ± 0.04 L/mol in data set [4] and 4.52 ± 0.04 L/mol in data set [5]. Moreover, the “difference in binding affinity, RSA vs. PSA complex” value on rat serum albumin (RSA) [2] (setting [14]) came to 14 fold. For the same molecule, at HSA, the “retention time (tR)” value was 8.0 min and 8.017 min.
For the molecule `C[C@H]1CCC[C@H](O)CCC/C=C/c2cc(O)cc(O)c2C(=O)O1` [α-ZEL, α-zearalenol, reference compound], the “xenoestrogenic effects compared with ZEN” value with estrogen receptors is reported as “considerably higher xenoestrogenic effects than ZEN”. Also, the “effect on binding affinity” value at warfarin-HSA complex [7] is on record as “increase”.
Regarding `C[C@H]1CCC[C@@H](O)CCCCCc2cc(O)cc(O)c2C(=O)O1` [β-ZAL, β-zearalanol], at warfarin-HSA complex [1], the “effect on fluorescence emission signal” value is on record as “did not affect the fluorescence at 379 nm”. The Kd at rat serum albumin (RSA) [2] is 2.45 µM; in data set [3], 70.8 µM; in data set [4], 75.9 µM; in [5], 42.7 µM. In addition, the “logKSV ± SEM” value on rat serum albumin (RSA) [2] is on record as 5.43 ± 0.01 L/mol; in [3] it was 4.13 ± 0.09 L/mol; in data set [4], 3.88 ± 0.06 L/mol; in data set [5], 4.34 ± 0.04 L/mol. Also, on rat serum albumin (RSA) [2] (setting [14]), the “difference in binding affinity, RSA vs. BSA complex” value is 30 fold. Also, on HSA, the “retention time (tR)” value is 3.1 min and 3.053 min.
Regarding `C[C@H]1CCCC(=O)CCC/C=C/c2cc(O)cc(O)c2C(=O)O1` [ZEN, Zearalenone], the “logK ± SEM (binding constant of mycotoxin-albumin complex)” value in data set [8] is 4.57 ± 0.01^a L/mol; in [9], 5.1 L/mol and 5.09 ± 0.01^a L/mol; on rat serum albumin (RSA) [11], 5.42 ± 0.00^a L/mol; in [12] it was 4.78 ± 0.01^a L/mol. Also, the “logKSV ± SEM” value in data set [8] was 4.56 ± 0.02^a L/mol; in [9] it was 5.09 ± 0.01^a L/mol; at rat serum albumin (RSA) [11] it was 5.50 ± 0.01^a L/mol; in data set [12], 4.81 ± 0.01^a L/mol. For the same molecule, at warfarin-HSA complex [7], the “effect on binding affinity” value is “increase”. In addition, the “human tolerable daily intake (TDI)” value in [10] is 0.25 μg/kg body weight per day. The IARC carcinogen classification entry in data set [13] is given as “group 3 carcinogen”. In addition, on HSA, the “retention time (tR)” value is 12.3 min and 12.267 min.
